# No end group written: not given here.
# Legend:
# β-Gal [1] = biological target: T1, β-Gal (Escherichia coli, UniProt P00722); conditions: 3-state model; 25° C.; 0-4 μM peptide
# Experimental: In this in vitro experiment the affinity of different interferor peptides was measured for binding to β-gal by means of surface plasmon resonance (SPR). SPR experiments were performed at 25° C. using a Biacore T100 equipped with CM5 sensor chip (GE Healthcare.). Coupling reagents (N-ethyl-N′-(3-dimethylaminopropyl)carbodiimide (EDC), N-hydroxysuccinimide (NHS) and ethanolamine-HCI) were purchased from GE Healthcare. BSA and β-gal were purchased from Sigma-Aldrich and Roche Diagnostics, respectively. […] The proteins BSA and β-Gal were immobilized respectively, in the reference and sample channels on a CM5 sensor chip by standard amine coupling chemistry at a flow of 10 μl min^−1. The carboxymethyl dextran surface was activated by the injection of a 1:1 ratio of EDC and NHS for 7 minutes. The proteins were diluted in 10 mM sodium-acetate buffer, pH 4.5 to a final concentration of 0.2 mg m1^−1 and injected in short pulses over the activated surface until the immobilization levels reached 4000 RU or 8000 RU, for BSA and β-Gal, respectively. The remaining reactive groups were blocked with 1 M ethanolamine, pH 8. After completion of coupling, the surface was regenerated with short pulses of 50 mM NaOH and 8 M urea to remove non-covalently attached proteins. […] The peptides, dissolved in the running buffer (10 mM sodium phosphate, pH 6.8, 150 mM NaCI, 3 mM EDTA and 0.015% Tween 20) at a concentration of 1 μM, were injected for 60 s at a flow rate of 30 μl min^−1 and then allowed to dissociate for 600 s. The injection was repeated on the same surface as well as on independently immobilized surfaces. The surface was regenerated between each cycle by 30 s pulses of i) 50 mM NaOH, and ii) 8 M urea, and was allowed to stabilize for 400 s before the next cycle.
# The peptide dissolved in the running buffer was injected for 60 s at a flow-rate of 301.11min′ over the reference (BSA) and sample (β-Gal) surfaces in a range of concentrations (0-4 μM, with one internal replicate) and were then allowed to dissociate for 600 s. The concentration series were repeated on the same surface (three times) as well as on independently immobilized surfaces. The surface was regenerated between each cycle by 30 s pulses of i) 50 mM NaOH, and ii) 8 M urea, and was allowed to stabilize for 400 s before the next cycle.
# The data were globally fitted to a three-state model, using the Biacore T100 software, assuming an initial encounter between the peptide in solution and the protein on the chip followed by a two-step rearrangement before an identical binding site becomes available at the growing β-sheet.
# β-Gal [2] = biological target: T1, β-Gal; conditions: equimolar concentrations of enzyme and interferor (10 μM)
# Experimental: Enzyme functional readout was performed using the substrate fluorescein-di-I3-D-galactopyranoside (FDG), which is non-fluorescent but on enzymatic cleavage by β-Gal fluorescent fluorescein is liberated with intensity proportional to the catalytic activity.
# EGFR family = test: EGF-induced ERK1/2 phosphorylation in HeLa cells (cross reactivity of VEGFR2 peptides); format: cell-based, human; conditions: EGF 25 ng/ml
# Experimental: As a next step, to test the specificity of the VEGFR2 peptides, we tested their cross reactivity towards the EGFR family. Therefore, HeLa cells were treated with peptide B8 and B12 and subsequently stimulated with EGF (25ng/ml).
# mVEGFR2 = biological target: T2, mVEGFR2 (Mus musculus, UniProt P35918); test: Immunohistochemical staining of mVEGFR2 in HEK293 cells (cellular localization); format: cell-based; conditions: 10 μM, overnight treatment
# T2 construct: expressed in transfected cells; host or cells: HEK293
# T2 sequence (P35918 20-1345): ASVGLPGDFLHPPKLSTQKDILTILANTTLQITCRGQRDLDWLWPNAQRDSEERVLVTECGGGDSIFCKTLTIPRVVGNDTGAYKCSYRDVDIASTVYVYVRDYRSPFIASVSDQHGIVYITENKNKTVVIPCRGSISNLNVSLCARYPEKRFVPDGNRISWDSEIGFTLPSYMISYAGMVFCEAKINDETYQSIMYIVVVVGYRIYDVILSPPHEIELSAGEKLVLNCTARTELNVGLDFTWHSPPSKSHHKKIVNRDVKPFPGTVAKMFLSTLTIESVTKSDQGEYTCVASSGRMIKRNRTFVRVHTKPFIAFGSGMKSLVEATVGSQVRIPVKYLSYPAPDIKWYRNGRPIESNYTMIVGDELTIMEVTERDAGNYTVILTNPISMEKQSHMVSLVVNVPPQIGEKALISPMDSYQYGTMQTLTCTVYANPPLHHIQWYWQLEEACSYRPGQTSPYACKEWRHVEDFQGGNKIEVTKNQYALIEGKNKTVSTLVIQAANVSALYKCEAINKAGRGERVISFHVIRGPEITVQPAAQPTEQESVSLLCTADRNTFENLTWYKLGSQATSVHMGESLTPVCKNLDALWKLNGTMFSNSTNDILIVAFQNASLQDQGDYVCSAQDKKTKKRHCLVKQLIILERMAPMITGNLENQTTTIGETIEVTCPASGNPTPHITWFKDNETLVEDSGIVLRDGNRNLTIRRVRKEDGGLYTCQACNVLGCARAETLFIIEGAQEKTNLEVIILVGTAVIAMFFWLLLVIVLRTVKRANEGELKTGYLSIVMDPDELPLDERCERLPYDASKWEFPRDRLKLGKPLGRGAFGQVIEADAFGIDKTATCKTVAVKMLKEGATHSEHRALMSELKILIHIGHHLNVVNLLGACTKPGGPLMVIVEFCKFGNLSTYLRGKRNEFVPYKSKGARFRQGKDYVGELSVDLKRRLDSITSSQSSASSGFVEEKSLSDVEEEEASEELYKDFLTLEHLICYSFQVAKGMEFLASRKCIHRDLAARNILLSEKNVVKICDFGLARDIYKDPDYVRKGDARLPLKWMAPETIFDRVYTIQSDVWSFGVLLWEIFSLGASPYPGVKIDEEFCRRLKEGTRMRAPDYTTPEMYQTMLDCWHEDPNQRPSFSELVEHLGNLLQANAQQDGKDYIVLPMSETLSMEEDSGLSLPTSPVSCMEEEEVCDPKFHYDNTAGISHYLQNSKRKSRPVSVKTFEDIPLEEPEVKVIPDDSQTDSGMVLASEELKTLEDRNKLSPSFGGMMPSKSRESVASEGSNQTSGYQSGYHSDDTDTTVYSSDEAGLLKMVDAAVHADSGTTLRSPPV
# Experimental: To better understand the cellular mechanism of peptide inhibition, a preliminary experiment was performed in which cells were stained with an anti-VEGFR2 antibody to track the cellular localization.
# human erythrocytes = format: cell-based
# From the text: The detergent Tween was used as a positive control, causing 100% lysis of RBCs.
# S. aureus ATCC 27853 = test: Invasion assay: bacteria in infected HCT116 cell monolayers (CFU count); format: cell-based; conditions: 100 μg/ml, 90 minutes infection, 1 h treatment
# Experimental: In this assay HCT116 cell monolayers (a human colon tumor cell line) were cultured at the bottom of a microwell plate. The next day fresh S. aureus ATCC 27853 bacteria were added (approximately 10^6 CFU/ml) and a negative uninfected control included. After 90 minutes of infection different dilution of peptides were added and the cultures were incubated for another hour. As a positive control Gentamycin was used, given that it has a good intracellular activity. Each well was washed with pre-warmed physiological water to get rid of any extra-cellular bacteria, followed by 1% Triton treatment to release all entrapped bacteria from mammalian cells. The content of the well was serially diluted and plated on TSA agar plates for CFU count.
# Corynebacterium = conditions: peptides with purity of >95%
# Experimental: (§1) Bacteria were grown in a shaking incubator at 37° C. and 160rpm in 50 ml BHI , using individual colonies retrieved from a fresh overnight TSA-sheep blood plate. The cultures were grown to a density of approximately 1×10^8cells/ml and then diluted to 5×10^5 cells/ml in CAMHB (Mc Farland 0.5). Each well contained 100p.I (50p.I of peptide containing MHB plus 50 μl inoculum). The final cell density was 1×10^5 to 5×10^5/ml. After addition of the cell suspension, plates were incubated at 37° C. for 18 to 24 hours. The optical density at 590 nm (OD590) of each well was measured after 5 seconds of shaking the plate using Perkin Elmer spectrophotometer (1420 Multilabel Counter Vicotr 3). […] Each well, where no growth was observed, was also plated on TSA-sheep blood agar plates, incubated at 37° C. overnight and visually inspected.
# (§2) A microbroth dilution method was used with twofold serial dilutions in CAMHB (according to EMEA guidelines) was used for screening of peptide activity, with concentrations ranging from 0.3 μg/mIto 200 μg/ml.
# Candida albicans SC5314 = test: In vitro mature C. albicans biofilm formation on polystyrene (XTT reduction assay); format: cell-based; conditions: 250 μM, 50 μM and 10 μM; peptide during adhesion only or during whole biofilm development; p<0.001
# Experimental: The initial screening and search for optimal Als3 candidate interferors was based on the C. albicans SC5314 adhesion assay on 96-well polystyrene plates upon administration of all the peptides at three different concentrations (250 μM, 50 μM and 10 μM). Based on the results obtained with this adhesion assay, we also tested the effect of peptides on mature biofilm development. The final election of the most optimal candidate interferor peptides was based on the results showing reduction in adhesion and mature biofilm formation caused by the lowest concentration of the peptide tested (10 μM or 2.5 μM).
# In a next step, lower concentrations of peptide F9 (50 μM, 10 μM and 2.5 μM) were also tested. […] Both assays were performed in 96-well polystyrene plates and quantified by the XTT reduction assay (see material and methods section).
# In vitro C. albicans biofilm was studied on three different types of biomaterials, namely flat bottom 96-well polystyrene plate (Greiner Bio-One, Germany), silicone (CS Hyde, USA) and polyurethane triple lumen intravenous catheters (2.4mm diameter) (Arrow International Reading, USA). […] After that, the biofilms were washed twice with 1×PBS and quantified.
# The metabolic activity of Candida cells within in vitro biofilms was studied using the XTT reduction assay. […] The intensity of colorimetric change was measured by spectrophotometer (Spectra max Plus 384) at 490 nm. […]
# Experimental for S. epidermidis: as §1, §2
# T1 sequence (P00722 2-1024 with the stated changes limits assumed): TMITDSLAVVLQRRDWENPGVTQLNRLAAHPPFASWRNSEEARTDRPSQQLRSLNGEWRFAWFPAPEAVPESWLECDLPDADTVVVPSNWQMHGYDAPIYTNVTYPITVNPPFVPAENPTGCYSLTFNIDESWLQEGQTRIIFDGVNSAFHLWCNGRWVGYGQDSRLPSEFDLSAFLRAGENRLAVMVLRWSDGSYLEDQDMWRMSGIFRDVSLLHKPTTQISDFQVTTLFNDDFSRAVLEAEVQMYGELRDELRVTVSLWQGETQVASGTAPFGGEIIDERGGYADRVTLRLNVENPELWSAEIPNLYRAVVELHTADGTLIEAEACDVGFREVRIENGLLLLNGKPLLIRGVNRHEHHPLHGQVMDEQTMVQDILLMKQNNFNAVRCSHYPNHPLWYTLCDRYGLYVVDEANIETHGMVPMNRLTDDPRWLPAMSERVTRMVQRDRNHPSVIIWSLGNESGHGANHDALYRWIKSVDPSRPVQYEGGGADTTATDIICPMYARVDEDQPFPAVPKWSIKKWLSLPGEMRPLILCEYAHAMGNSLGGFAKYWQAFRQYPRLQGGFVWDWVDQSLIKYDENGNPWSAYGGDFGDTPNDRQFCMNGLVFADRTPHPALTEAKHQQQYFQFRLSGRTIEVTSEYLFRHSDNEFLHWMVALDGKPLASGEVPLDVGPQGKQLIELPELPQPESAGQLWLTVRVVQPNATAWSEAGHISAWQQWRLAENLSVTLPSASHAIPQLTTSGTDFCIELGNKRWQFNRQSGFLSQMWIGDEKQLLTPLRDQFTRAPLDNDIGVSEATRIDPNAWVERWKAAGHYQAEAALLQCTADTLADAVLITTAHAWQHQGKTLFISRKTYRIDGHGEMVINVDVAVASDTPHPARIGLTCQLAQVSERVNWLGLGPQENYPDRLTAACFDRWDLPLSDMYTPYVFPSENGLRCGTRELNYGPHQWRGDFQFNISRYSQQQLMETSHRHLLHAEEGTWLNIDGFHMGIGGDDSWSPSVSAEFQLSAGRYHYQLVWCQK
substance,measurement,setting,value
(His)6~RVIIWSLGNR [Tango 2 peptide],ka1,β-Gal [1],2.744E+4
same,ka1 (second value printed),β-Gal [1],0.02359
same,ka3,β-Gal [1],0.005491
same,kd1,β-Gal [1],0.4123
same,kd2,β-Gal [1],0.02509
same,kd3,β-Gal [1],0.002654
same,enzymatic activity of β-galactosidase,β-Gal [2],complete inhibition of enzymatic activity
DLAVALWFDPPDLAVALWFD [B8],ERK1/2 phosphorylation after EGF stimulation,EGFR family,do not inhibit ERK1/2 phosphorylation
same,cellular localization of VEGFR2,mVEGFR2,no longer present on the cell surface
RFFIGLSRRGSRLFNFLKR [Hit57A],hemolytic activity,human erythrocytes,no significant hemolytic activity at clinically relevant concentrations
same,numbers of bacteria in infected cell monolayers,S. aureus ATCC 27853,effectively reduced the numbers of bacteria in infected cell monolayers
same,MIC,S. aureus,50 µg/mL
same,MIC in presence of 50% FBS,S. aureus,100 µg/mL
same,MIC values against MRSA 326,S. aureus,6 µg/mL
same,MIC values against Corynebacterium,Corynebacterium,Not active
RNGIVIVATTR [E1],biofilm formation (metabolic activity compared to control),Candida albicans SC5314,significant reduction in biofilm formation
RRLFNFLKRGSRLFNFLKR [Hit24],hemolytic activity,human erythrocytes,no significant hemolytic activity at clinically relevant concentrations
same,MIC values against S.aureus ATCC 29213,S. aureus,12.5 µg/mL
same,MIC values against S.epidermidis ATCC 12228,S. epidermidis,1.5 µg/mL
same,MIC,E. cloacae,25 µg/mL

# — patent US20220033448A1, “METHODS FOR AGGREGATION OF PROTEINS” (priority 2011, published 2022)
